Assay results published in PubChem BioAssay AID1259407 (Chemical Carcinogenesis Research Information System (CCRIS), 2018).
Active and inactive are the calls of the source. The rule behind the calls is not given here.

System: CCRIS mutagenicity, Ames/micronucleus/aberration tests
Test: CCRIS mutagenicity studies
[1] = Test System: AMES SALMONELLA TYPHIMURIUM, Strain/Indicator: TA98, Metabolic Activation: NONE, Method: PREINCUBATION
[2] = Test System: AMES SALMONELLA TYPHIMURIUM, Strain/Indicator: TA100, Metabolic Activation: NONE, Method: STANDARD PLATE
[3] = Test System: AMES SALMONELLA TYPHIMURIUM, Strain/Indicator: TA100, Metabolic Activation: NONE, Method: PREINCUBATION
[4] = Test System: AMES SALMONELLA TYPHIMURIUM, Strain/Indicator: TA100, Metabolic Activation: RAT, LIVER, S-9, AROCLOR 1254, Method: PREINCUBATION

O=[N+]([O-])c1ccc(-c2ccccc2)cc1
mutagenic call (Test System: AMES SALMONELLA TYPHIMURIUM, Strain/Indicator: TA98(1,8-DNP6), Metabolic Activation: NONE): inactive; negative
mutagenic call (Test System: AMES SALMONELLA TYPHIMURIUM, Strain/Indicator: TA98(1,8-DNP6), Metabolic Activation: NONE, Method: STANDARD PLATE): active; positive
mutagenic call (Test System: AMES SALMONELLA TYPHIMURIUM, Strain/Indicator: TA98(1,8-DNP6), Metabolic Activation: RAT, LIVER, S-9, AROCLOR 1254): inactive; negative
mutagenic call (Test System: AMES SALMONELLA TYPHIMURIUM, Strain/Indicator: TA98(NR), Metabolic Activation: NONE): inactive; negative
mutagenic call (Test System: AMES SALMONELLA TYPHIMURIUM, Strain/Indicator: TA98(NR), Metabolic Activation: NONE, Method: STANDARD PLATE): inactive; negative
mutagenic call (Test System: AMES SALMONELLA TYPHIMURIUM, Strain/Indicator: TA98(NR), Metabolic Activation: RAT, LIVER, S-9, AROCLOR 1254): inactive; negative
mutagenic call (Test System: AMES SALMONELLA TYPHIMURIUM, Strain/Indicator: TA98, Metabolic Activation: NONE): inactive; negative
mutagenic call [1]: active; positive
mutagenic call (Test System: AMES SALMONELLA TYPHIMURIUM, Strain/Indicator: TA98, Metabolic Activation: RAT, LIVER, S-9, AROCLOR 1254): inactive; negative
mutagenic call (Test System: AMES SALMONELLA TYPHIMURIUM, Strain/Indicator: TA98, Metabolic Activation: RAT, LIVER, S-9, PCB (10%), Method: PREINCUBATION): active; positive
mutagenic call (Test System: AMES SALMONELLA TYPHIMURIUM, Strain/Indicator: TA98, Metabolic Activation: RAT, LIVER, S-9, PCB, Method: PREINCUBATION): active; positive
mutagenic call (Test System: AMES SALMONELLA TYPHIMURIUM, Strain/Indicator: TA98, Metabolic Activation: RAT, LIVER, S-100 (CYTOSOL), Method: PREINCUBATION): active; positive
mutagenic call (Test System: AMES SALMONELLA TYPHIMURIUM, Strain/Indicator: TA98, Metabolic Activation: RAT, LIVER, S-100 (MICROSOMES), Method: PREINCUBATION): active; positive
mutagenic call (Test System: AMES SALMONELLA TYPHIMURIUM, Strain/Indicator: TA98, Metabolic Activation: S-9, Method: STANDARD PLATE): active; positive
mutagenic call (Test System: AMES SALMONELLA TYPHIMURIUM, Strain/Indicator: TA100(NR), Metabolic Activation: NONE): inactive; negative
mutagenic call (Test System: AMES SALMONELLA TYPHIMURIUM, Strain/Indicator: TA100(NR), Metabolic Activation: RAT, LIVER, S-9, AROCLOR 1254): inactive; negative
mutagenic call (Test System: AMES SALMONELLA TYPHIMURIUM, Strain/Indicator: TA100, Metabolic Activation: NONE): inactive; negative
mutagenic call [2]: active; positive
mutagenic call (Test System: AMES SALMONELLA TYPHIMURIUM, Strain/Indicator: TA100, Metabolic Activation: RAT, LIVER, S-9, AROCLOR 1254): inactive; negative
mutagenic call (Test System: AMES SALMONELLA TYPHIMURIUM, Strain/Indicator: TA100, Metabolic Activation: S-9, Method: STANDARD PLATE): active; positive
mutagenic call (Test System: AMES SALMONELLA TYPHIMURIUM, Strain/Indicator: TA104, Metabolic Activation: NONE): inactive; negative
mutagenic call (Test System: AMES SALMONELLA TYPHIMURIUM, Strain/Indicator: TA104, Metabolic Activation: RAT, LIVER, S-9, AROCLOR 1254): inactive; negative
mutagenic call (Test System: CHINESE HAMSTER OVARY, Strain/Indicator: CHO-K1-BH4 (HGPRT), Metabolic Activation: NONE, Method: SUSPENSION/PLATE): inactive; negative
mutagenic call (Test System: CHINESE HAMSTER OVARY, Strain/Indicator: CHO-K1-BH4 (HGPRT), Metabolic Activation: RAT, LIVER, S-9, AROCLOR, Method: SUSPENSION/PLATE): inactive; negative
mutagenic call (Test System: UDS RAT HEPATOCYTES, Strain/Indicator: THY INCORP, Metabolic Activation: NONE, Method: AUTORADIOGRAPHY (SERUM-FREE MEDIA)): active; positive

CCOc1ccc(N=O)cc1
mutagenic call (Test System: AMES SALMONELLA TYPHIMURIUM, Strain/Indicator: TA98, Metabolic Activation: NONE, Method: STANDARD PLATE): active; positive
mutagenic call (Test System: AMES SALMONELLA TYPHIMURIUM, Strain/Indicator: TA98, Metabolic Activation: RAT, LIVER, S-9, AROCLOR 1254, Method: STANDARD PLATE): active; positive
mutagenic call (Test System: AMES SALMONELLA TYPHIMURIUM, Strain/Indicator: TA100(NR), Metabolic Activation: NONE, Method: PREINCUBATION): active; positive
mutagenic call (Test System: AMES SALMONELLA TYPHIMURIUM, Strain/Indicator: TA100(NR), Metabolic Activation: NONE, Method: STANDARD PLATE): active; positive
mutagenic call (Test System: AMES SALMONELLA TYPHIMURIUM, Strain/Indicator: TA100(NR), Metabolic Activation: RAT, LIVER, S-9, AROCLOR 1254, Method: PREINCUBATION): active; positive
mutagenic call (Test System: AMES SALMONELLA TYPHIMURIUM, Strain/Indicator: TA100(NR), Metabolic Activation: RAT, LIVER, S-9, AROCLOR 1254, Method: STANDARD PLATE): active; positive
mutagenic call (Test System: AMES SALMONELLA TYPHIMURIUM, Strain/Indicator: TA100, Metabolic Activation: HAMSTER, LIVER, S-9, KANECHLOR 400, Method: PREINCUBATION): active; positive
mutagenic call [3]: active; positive
mutagenic call [2]: active; positive
mutagenic call [4]: active; positive
mutagenic call (Test System: AMES SALMONELLA TYPHIMURIUM, Strain/Indicator: TA100, Metabolic Activation: RAT, LIVER, S-9, AROCLOR 1254, Method: STANDARD PLATE): active; positive
mutagenic call (Test System: AMES SALMONELLA TYPHIMURIUM, Strain/Indicator: TA100TN5-1,8-DNP1011, Metabolic Activation: NONE, Method: PREINCUBATION): active; positive
mutagenic call (Test System: AMES SALMONELLA TYPHIMURIUM, Strain/Indicator: TA100TN5-1,8-DNP1011, Metabolic Activation: NONE, Method: STANDARD PLATE): active; positive
mutagenic call (Test System: AMES SALMONELLA TYPHIMURIUM, Strain/Indicator: TA100TN5-1,8-DNP1011, Metabolic Activation: RAT, LIVER, S-9, AROCLOR 1254, Method: PREINCUBATION): active; positive
mutagenic call (Test System: AMES SALMONELLA TYPHIMURIUM, Strain/Indicator: TA100TN5-1,8-DNP1011, Metabolic Activation: RAT, LIVER, S-9, AROCLOR 1254, Method: STANDARD PLATE): active; positive
mutagenic call (Test System: AMES SALMONELLA TYPHIMURIUM, Strain/Indicator: TA100TN5-1,8-DNP1012, Metabolic Activation: NONE, Method: PREINCUBATION): active; positive
mutagenic call (Test System: AMES SALMONELLA TYPHIMURIUM, Strain/Indicator: TA100TN5-1,8-DNP1012, Metabolic Activation: NONE, Method: STANDARD PLATE): active; positive
mutagenic call (Test System: AMES SALMONELLA TYPHIMURIUM, Strain/Indicator: TA100TN5-1,8-DNP1012, Metabolic Activation: RAT, LIVER, S-9, AROCLOR 1254, Method: PREINCUBATION): active; positive
mutagenic call (Test System: AMES SALMONELLA TYPHIMURIUM, Strain/Indicator: TA100TN5-1,8-DNP1012, Metabolic Activation: RAT, LIVER, S-9, AROCLOR 1254, Method: STANDARD PLATE): active; positive

NC(CO)Cc1cnc[nH]1 (centres undefined)
mutagenic call (Test System: MOUSE LYMPHOMA, Strain/Indicator: L5178Y (TK+/TK-), Metabolic Activation: NONE, Method: SUSPENSION/PLATE): inactive; negative. reevaluation of results: negative
mutagenic call (Test System: MOUSE LYMPHOMA, Strain/Indicator: L5178Y (TK+/TK-), Metabolic Activation: RAT, LIVER, S-9, AROCLOR 1254, Method: SUSPENSION/PLATE): inactive; negative. reevaluation of results: negative

Cc1[nH]ccc2c1[nH]c1cc(=O)ccc12
mutagenic call (Test System: AMES SALMONELLA TYPHIMURIUM, Strain/Indicator: TA97, Metabolic Activation: NONE, Method: PREINCUBATION): active; positive
mutagenic call (Test System: AMES SALMONELLA TYPHIMURIUM, Strain/Indicator: TA97, Metabolic Activation: RAT, LIVER, S-9, AROCLOR 1254, Method: PREINCUBATION): inactive; negative
mutagenic call [1]: inactive; negative
mutagenic call (Test System: AMES SALMONELLA TYPHIMURIUM, Strain/Indicator: TA98, Metabolic Activation: RAT, LIVER, S-9, AROCLOR 1254, Method: PREINCUBATION): inactive; negative
mutagenic call [3]: inactive; negative
mutagenic call [4]: inactive; negative
mutagenic call (Test System: AMES SALMONELLA TYPHIMURIUM, Strain/Indicator: TA102, Metabolic Activation: NONE, Method: PREINCUBATION): inactive; negative
mutagenic call (Test System: AMES SALMONELLA TYPHIMURIUM, Strain/Indicator: TA102, Metabolic Activation: RAT, LIVER, S-9, AROCLOR 1254, Method: PREINCUBATION): inactive; negative
